Measured values: US20230372318A1, “METHODS FOR TREATING A SUBJECT HAVING MULTIPLE SYSTEM ATROPHY” (Theravance Biopharma R&D IP, LLC, priority 2022, published 2023)

Tests used:
[1] = target: T1, rat native DAT (Rattus norvegicus, UniProt P23977); assay: [3H]-DA uptake inhibition, rat striatal synaptosomes; type: biochemical; details: mean
T1 construct: human recombinant and rat native monoamine transporters; from tissue; host or cells: rat striatum (synaptosomes)
From the text: (§1) The in vitro pharmacology of ampreloxetine at human recombinant and rat native monoamine transporters was characterized as described in Smith et al., Inter. J. Neuropsychopharmcol. (2015) 1-11; and Tsuruda et al., J. Pharmacol. Toxicol. Meth. (2010) 61:192-204. See also, e.g., U.S. Pat. Nos. 8,304,432 B2 and 8,304,433 B2. Radioligands were sourced commercially (Perkin Elmer LifeSciences or GE Healthcare Life Sciences).
(§2) Briefly, membranes prepared from HEK293 (Human Embryonic Kidney 293) or CHO-K1 (Chinese Hamster Ovary-K1) cells stably transfected with human recombinant SERT (HEK293-hSERT), NET (HEK293-hNET), or DAT (CHO-K1-hDAT) were incubated for 1 hr at 22° C. in the absence, or presence, of 4-[2-(2,4,6-trifluorophenoxymethyl)phenyl]piperidine and [^3H]-citalopram (1.0 nM) for SERT, [^3H]-nisoxetine (2.0 nM) for NET, and [^3H]-WIN35428 (3.0 nM) for DAT in 50 mM Tris-HCl, 120 mM NaCl, 5 mM KCl, 0.025% BSA, 100 μM ascorbic acid, pH 7.4. Rat cortical membrane preparations were incubated with [^3H]-citalopram (2.0 nM) for SERT or [^3H]-nisoxetine (4.0 nM) for NET for 1 hr at 22° C. […] Binding and uptake assays were terminated by rapid filtration and radioactivity determined by liquid scintillation spectroscopy. […] Selectivity for NET (rounded to one significant figure) was determined as follows: […]

[2] = target: T2, rat native SERT (Rattus norvegicus, UniProt P31652); assay: Radioligand binding, [3H]-citalopram, rat cortical membranes; details: mean (95% confidence intervals)
T2 construct: human recombinant and rat native monoamine transporters; from tissue; host or cells: rat cerebral cortex (membranes; synaptosomes)
From the text: as §1, §2

[3] = target: T3, human recombinant NET (Homo sapiens, UniProt P23975); assay: Radioligand binding, [3H]-nisoxetine, HEK293-hNET membranes; details: mean (95% confidence intervals)
T3 construct: expressed in transfected cells; host or cells: HEK293
From the text: as §1, §2

[4] = system: plasma protein; assay: Plasma protein binding, human; type: in vitro ADME
[5] = system: healthy subjects; details: single dose up to 50 mg and multiple doses up to 20 mg once per day; cited from earlier work
[6] = system: subjects with attention-deficit hyperactivity disorder and fibromyalgia; details: 5 mg or 20 mg once per day for 6 weeks; cited from earlier work
[7] = system: rat native NET; assay: [3H]-NE uptake inhibition, rat cortical synaptosomes; type: biochemical; details: [3H]-NE vs [3H]-5-HT uptake
From the text: as §1, §2

[8] = target: T4, human recombinant DAT (Homo sapiens, UniProt Q01959); assay: Radioligand binding, [3H]-WIN35428, CHO-K1-hDAT membranes; details: mean
T4 construct: expressed in transfected cells; host or cells: CHO-K1
From the text: as §1, §2

T3 sequence (P23975 whole entry): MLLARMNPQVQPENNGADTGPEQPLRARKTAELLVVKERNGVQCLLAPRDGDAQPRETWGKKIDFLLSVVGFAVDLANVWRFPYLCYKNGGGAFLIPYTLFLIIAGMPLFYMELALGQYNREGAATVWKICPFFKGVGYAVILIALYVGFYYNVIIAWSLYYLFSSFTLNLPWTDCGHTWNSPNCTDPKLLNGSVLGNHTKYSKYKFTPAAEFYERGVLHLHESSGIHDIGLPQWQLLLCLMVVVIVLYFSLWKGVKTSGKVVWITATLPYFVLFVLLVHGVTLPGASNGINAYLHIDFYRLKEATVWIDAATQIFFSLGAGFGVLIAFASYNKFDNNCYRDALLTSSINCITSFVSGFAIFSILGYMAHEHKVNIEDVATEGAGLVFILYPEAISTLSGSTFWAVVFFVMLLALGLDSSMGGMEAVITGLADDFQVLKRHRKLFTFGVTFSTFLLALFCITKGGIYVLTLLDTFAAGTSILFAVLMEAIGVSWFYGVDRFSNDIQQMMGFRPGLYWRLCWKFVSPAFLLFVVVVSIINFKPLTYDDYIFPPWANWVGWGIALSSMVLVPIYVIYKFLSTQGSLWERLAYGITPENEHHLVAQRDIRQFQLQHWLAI
T4 sequence (Q01959 whole entry): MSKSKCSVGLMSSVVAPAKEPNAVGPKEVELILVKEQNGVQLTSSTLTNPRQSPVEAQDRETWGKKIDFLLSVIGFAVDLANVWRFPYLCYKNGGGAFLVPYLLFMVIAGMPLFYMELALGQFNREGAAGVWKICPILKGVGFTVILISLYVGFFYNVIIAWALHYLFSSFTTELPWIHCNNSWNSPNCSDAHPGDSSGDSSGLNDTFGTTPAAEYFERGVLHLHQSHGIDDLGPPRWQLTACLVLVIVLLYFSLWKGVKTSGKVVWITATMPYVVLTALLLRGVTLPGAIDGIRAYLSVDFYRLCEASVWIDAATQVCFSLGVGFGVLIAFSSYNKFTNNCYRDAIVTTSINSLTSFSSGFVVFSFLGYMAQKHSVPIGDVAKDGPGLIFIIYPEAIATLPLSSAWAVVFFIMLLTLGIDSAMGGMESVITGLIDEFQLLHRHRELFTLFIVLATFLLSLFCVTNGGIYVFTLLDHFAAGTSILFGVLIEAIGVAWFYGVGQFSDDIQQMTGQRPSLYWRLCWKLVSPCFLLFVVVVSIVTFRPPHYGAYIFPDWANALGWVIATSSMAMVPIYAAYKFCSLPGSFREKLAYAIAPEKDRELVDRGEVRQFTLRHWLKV
T1 sequence (P23977 whole entry): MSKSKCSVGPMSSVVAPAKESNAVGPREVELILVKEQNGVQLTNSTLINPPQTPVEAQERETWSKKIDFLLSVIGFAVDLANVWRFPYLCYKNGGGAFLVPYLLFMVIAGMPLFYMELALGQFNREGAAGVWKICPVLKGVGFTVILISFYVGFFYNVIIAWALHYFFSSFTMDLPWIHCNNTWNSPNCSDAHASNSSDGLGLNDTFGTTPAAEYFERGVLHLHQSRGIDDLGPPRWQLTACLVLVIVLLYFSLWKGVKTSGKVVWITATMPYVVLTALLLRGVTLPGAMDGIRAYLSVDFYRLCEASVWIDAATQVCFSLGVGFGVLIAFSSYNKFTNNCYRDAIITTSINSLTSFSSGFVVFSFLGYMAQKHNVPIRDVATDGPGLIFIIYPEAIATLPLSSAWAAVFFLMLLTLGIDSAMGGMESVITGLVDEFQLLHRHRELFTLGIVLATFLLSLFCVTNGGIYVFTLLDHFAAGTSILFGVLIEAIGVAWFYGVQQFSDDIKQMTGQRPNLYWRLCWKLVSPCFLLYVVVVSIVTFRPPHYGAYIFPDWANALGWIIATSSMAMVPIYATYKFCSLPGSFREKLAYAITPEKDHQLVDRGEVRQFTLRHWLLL
T2 sequence (P31652 whole entry): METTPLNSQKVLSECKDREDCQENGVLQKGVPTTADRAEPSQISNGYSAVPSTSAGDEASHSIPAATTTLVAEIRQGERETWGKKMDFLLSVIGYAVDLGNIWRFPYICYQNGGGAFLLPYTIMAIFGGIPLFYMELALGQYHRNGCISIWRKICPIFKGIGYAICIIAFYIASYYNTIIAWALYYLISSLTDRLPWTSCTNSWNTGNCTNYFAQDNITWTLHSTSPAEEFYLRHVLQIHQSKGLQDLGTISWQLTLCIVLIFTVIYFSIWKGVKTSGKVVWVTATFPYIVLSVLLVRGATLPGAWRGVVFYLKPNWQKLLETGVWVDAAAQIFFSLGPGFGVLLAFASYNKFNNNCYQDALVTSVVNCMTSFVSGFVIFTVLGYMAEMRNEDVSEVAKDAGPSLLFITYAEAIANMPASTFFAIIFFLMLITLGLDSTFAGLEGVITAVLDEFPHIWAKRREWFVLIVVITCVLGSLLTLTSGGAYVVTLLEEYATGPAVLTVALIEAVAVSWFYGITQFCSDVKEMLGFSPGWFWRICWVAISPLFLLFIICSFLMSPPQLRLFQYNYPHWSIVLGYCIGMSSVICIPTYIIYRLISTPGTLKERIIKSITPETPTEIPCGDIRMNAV

## Fc1cc(F)c(OCc2ccccc2C2CCNCC2)c(F)c1 [Ampreloxetine, 4-[2-(2,4,6-trifluorophenoxymethyl)phenyl]piperidine]
[1]
  Neurotransmitter Uptake Inhibition: pIC50, DAT: 6.9
[2]
  Transporter Binding: pKi, SERT: 8.5 (8.3, 8.6)
[3]
  Transporter Binding: pKi, NET: 8.8 (8.8, 8.9)
[4]
  Plasma protein binding: 79.1%
[5]
  Safety and tolerability: generally well tolerated
[6]
  Safety and tolerability: generally well tolerated with no clinically significant safety signals
[7]
  Apparent functional selectivity for NET over SERT: 10 fold
[8]
  Transporter Binding: pKi, DAT: 6.7
